Read-outs that look alike come from different tables or passages of the source. No end group written: not given here.
Tests used:
mTOR kinases = conditions: cited from earlier work; for activators of mTOR or inhibitors of autophagy, compared with other amino acids: alone or in combination, literature search November 2011
autophagy = conditions: cited from earlier work; for inhibitory effects on autophagy: human cells (Meijer et al. 2015)
guinea pig skin = conditions: internal standard […]; cited from earlier work
neutrophil = conditions: cited from earlier work
[1] = cited from earlier work
[2] = Distribution and elimination of intravenously injected [14C]-AQGV from mice; format: in vivo
Description: The present study, which was conducted by TNO Biosciences, Utrechtseweg, Netherlands, was designed to provide data on the distribution and metabolism of [14C]-AQGV (SEQ ID NO:11) (Ala-Gln-[1-^14C]Gly-Val) in male CD-1 mice following a single intravenous dose of 50 mg/kg. To this end, mice were sacrificed at 10, 30 and 60 minutes, and 6 and 24 hours after administration of radiolabeled AQGV (SEQ ID NO:11), counts in various tissues were determined, and the radioactivity present in the urine and plasma were analyzed by HPLC.

[3] = cited from earlier work; remark: listed apart in the source
[4] = 50 mg/kg twice daily i.p.; cited from earlier work
PKB (also known as AKT) = assay: FPR-signaling assay: PKB (AKT) phosphorylation in FPR-expressing cells stimulated with fMLP; format: cell-based
Text: The pathway is governing the balance between proteolysis and proteogenesis regulating cytoskeleton changes affecting vascular permeability.

[5] = cited from earlier work; remark: listed apart in the source
p38 MAPK = assay: FPR-signaling assay: p38 MAPK phosphorylation in FPR-expressing cells stimulated with fMLP; format: cell-based
Text: (§1) Both AQGV (SEQ ID NO:11) peptide effects on p38 and PKB-mediated signalling last for the full 600 seconds tested whereas the other kinases tested were not affected throughout. […] The pathway is governing the balance between proteolysis and proteogenesis regulating cytoskeleton changes affecting vascular permeability. It is shown that an autophagy-inhibiting peptide reduces p38 MAPK kinase activated changes as well as reduces PI3K/AKT/mTOR activated induced changes in cell cytoskeleton reorganization affecting endothelial cell contraction and adverse vascular permeability. Autophagy-inhibiting peptide is useful and capable of addressing adverse vascular permeability, such as manifested by edema with vascular leakage, adverse leukocyte extravasation and hypotension, tissue injury and immune responses in human subjects.

[6] = test system: STAT3, JNK and P42/p44MAPK/ERK1,2 kinases; assay: FPR-signaling assay: STAT3, JNK and P42/p44MAPK/ERK1,2 phosphorylation in FPR-expressing cells; format: cell-based
Text: as §1

CXCR4 = target: T1, CXCR4 (Homo sapiens, UniProt P61073); conditions: cited from earlier work; for agonist behaviour in chemotaxis: CCRF-CEM cell line
T1 construct: In chemotaxis assays using the acute lymphoblastic leukemia cell line CCRF-CEM; endogenous in cells; host or cells: CCRF-CEM
T1 sequence (P61073 whole entry): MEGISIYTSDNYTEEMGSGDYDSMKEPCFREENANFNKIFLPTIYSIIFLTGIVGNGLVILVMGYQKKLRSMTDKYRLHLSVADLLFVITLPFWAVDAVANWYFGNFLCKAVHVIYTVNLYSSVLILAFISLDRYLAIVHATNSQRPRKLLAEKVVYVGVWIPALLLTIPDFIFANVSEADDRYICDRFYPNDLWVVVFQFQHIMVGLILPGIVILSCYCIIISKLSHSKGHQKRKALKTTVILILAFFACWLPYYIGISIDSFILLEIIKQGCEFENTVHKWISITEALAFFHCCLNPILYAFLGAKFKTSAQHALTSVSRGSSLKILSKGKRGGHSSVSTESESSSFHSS

CC(C)C[C@H](N)C(=O)O [L-Leucine]
activators of mTOR or inhibitors of autophagy, compared with other amino acids (mTOR kinases): more potent
Literature-based activity: mTOR kinases (mTOR kinases): activate
Literature-based activity: autophagy (autophagy): DOWN
inhibitory effects on autophagy (autophagy): most prominent

C[C@H](N)C(=O)O [L-Alanine]
activators of mTOR or inhibitors of autophagy, compared with other amino acids (mTOR kinases): more potent
Literature-based activity: autophagy (autophagy): DOWN
inhibitory effects on autophagy (autophagy): most prominent

N[C@@H](Cc1ccc(O)cc1)C(=O)O [tyrosine, L-Tyrosine]
activators of mTOR or inhibitors of autophagy, compared with other amino acids (mTOR kinases): no or opposite effects

O=C(O)[C@@H]1CCCN1 [L-Proline]
activators of mTOR or inhibitors of autophagy, compared with other amino acids (mTOR kinases): more potent
Literature-based activity: mTOR kinases (mTOR kinases): activate
inhibitory effects on autophagy (autophagy): most prominent

acyl-YSFKPMPLaR (YSFKPMPLXR; N-acetyl; D-Ala; chemoattractant motif; MOD_RES (1)..(1) …ON; VARIANT (9)..(9) is D-ala) [conformationally constrained decapeptide agonist analog of C5a65-74]
potency relative to unconstrained analog […] (guinea pig skin): at least 10 fold

Acetyl-proline-glycine-proline [AcPGP]
concentration level at which the chemoattractant operates (neutrophil; ELR+ CXC chemokines are functional at nanomolar levels): micromolar level

LQGV (tetrapeptide) [tetrapeptide, sister compound of AQGV]
survival ([1]; 5 mg/kg bodyweight combined with fluid resuscitation and antibiotics, severe cecal ligation and puncture, 30% without peptide): 70%
survival ([1]; 5 mg/kg bodyweight, first 5 days after moderate cecal ligation and puncture, 20% without): 50%
pulmonary nuclear factor-κB activation and pulmonary damage ([1]; mouse, in vivo): reduced
cytokine and E-selectin levels ([1]; peritoneal lavage fluid, lungs, to a lesser extent plasma): reduced

Ala-Gln-[1-^14C]Gly-Val (AQGV; also: 14C label at C1 of Gly ([1-14C]Gly)) [[14C]-AQGV]
average total recovery of radioactivity ([2]; 10 minutes after dose administration): 83.2%
average total recovery of radioactivity ([2]; 30 minutes after dose administration): 70.5%
average total recovery of radioactivity ([2]; 60 minutes after dose administration): 62.9%
average total recovery of radioactivity ([2]; 6 hours after dose administration): 52.6%
average total recovery of radioactivity ([2]; 24 hours after dose administration): 50.8%
administered radioactivity excreted in feces ([2]; after 24 hours): 2.6%
administered radioactivity excreted in urine ([2]; after 24 hours): 10.2%
radioactivity in the blood, amount if all counts were in intact peptide ([2]; blood, 10 minutes after single i.v. dose of 50 mg/kg): 17.2 µg/g
concentration of "peptide" (radioactivity) ([2]; kidneys, after 10 minutes): 362 µg/g
concentration of "peptide" (radioactivity) ([2]; kidneys, after 24 hours): 61.9 µg/g
concentration of "peptide" (radioactivity) ([2]; liver, after 10 minutes): 105 µg/g
concentration of "peptide" (radioactivity) ([2]; liver, after 24 hours): 37.6 µg/g
concentration of "peptide" (radioactivity) ([2]; lung, after 10 minutes): 75.2 µg/g
time to full hydrolysis of the peptide after administration ([2]; mice): 15 min
parent compound in plasma (HPLC) ([2]; plasma, after 10 minutes, 50 mg/kg i.v.): No parent compound could be detected
concentration of "peptide" (radioactivity) ([2]; skin, after 24 hours): 37.5 µg/g
concentration of "peptide" (radioactivity) ([2]; spleen, after 10 minutes): 74.7 µg/g
concentration of "peptide" (radioactivity) ([2]; spleen, after 24 hours): 39.3 µg/g
concentration of "peptide" (radioactivity) ([2]; testis, after 10 minutes): 85.7 µg/g
concentration of "peptide" (radioactivity) ([2]; thymus, after 24 hours): 43.1 µg/g
administered radioactivity exhaled as volatiles, most likely 14C-CO2 ([2]; up to 24 hours): About 50%
parent compound in urine (HPLC) ([2]; urine, 50 mg/kg i.v.): No parent compound was detected

CC[C@H](C)[C@H](N)C(=O)O [L-Isoleucine]
activators of mTOR or inhibitors of autophagy, compared with other amino acids (mTOR kinases): more potent
Literature-based activity: mTOR kinases (mTOR kinases): activate
Literature-based activity: autophagy (autophagy): DOWN

AQGV (tetrapeptide)
survival ([3]; 20-50 mg/kg twice daily i.p. for four days, started 24 hours after IRI, dose dependent): markedly improved
CTGF up-regulation, marker of post-ischemic fibrosis ([3]; four weeks after IRI, renal tissue): significantly less
tubular epithelial cell proliferation ([3]; mouse, in vivo): significantly enhanced
acute tubular injury ([3]; two days after IRI): diminished
renal function and allograft survival [4]: improved
time at which peptide effects on PKB(AKT) follow after FPR-stimulation (PKB (also known as AKT); bi-phasic pattern, peptide at 20 ng/ml or 50 ng/ml, fMLP stimulation): 300 s
duration of peptide effects on PKB-mediated signalling (PKB (also known as AKT); full period tested): 600 s
endotoxin induced increase in plasma levels of cytokines and adhesion molecule VCAM-1 ([5]; 180 mg/kg (the highest dose)): significant attenuation
fever and flu-like symptoms ([5]; the highest dose): reduced
effect on p38/p38-MK2-HSP27 and/or PI3K/AKT/mTOR pathways (p38 MAPK; formyl-peptide related signaling): attenuate
duration of peptide effects on p38-mediated signalling (p38 MAPK; full period tested): 600 s
time at which peptide effects on p38 MAPK are detected after FPR-stimulation (p38 MAPK; peptide at 20 ng/ml or 50 ng/ml, fMLP stimulation): 30 s
peptide effect on the other kinases tested ([6]; throughout 600 seconds): not affected

C[C@@H](O)[C@H](N)C(=O)O [L-Threonine]
activators of mTOR or inhibitors of autophagy, compared with other amino acids (mTOR kinases): no or opposite effects
Literature-based activity: mTOR kinases (mTOR kinases): down

N[C@@H](CO)C(=O)O [serine, L-Serine]
activators of mTOR or inhibitors of autophagy, compared with other amino acids (mTOR kinases): no or opposite effects

ASLW (CXCR4 superagonist) [peptide agonist of CXCR4]
agonist behaviour in chemotaxis (CXCR4): superagonist
sensitivity to the CXCR4 antagonist AMD3100 (CXCR4): insensitive

CSCC[C@H](N)C(=O)O [L-Methionine]
activators of mTOR or inhibitors of autophagy, compared with other amino acids (mTOR kinases): no or opposite effects
Literature-based activity: mTOR kinases (mTOR kinases): partial inhibit

N[C@@H](CCC(=O)O)C(=O)O [glutamate, L-Glutamic Acid]
activators of mTOR or inhibitors of autophagy, compared with other amino acids (mTOR kinases): no or opposite effects

N[C@@H](Cc1c[nH]cn1)C(=O)O [L-Histidine]
Literature-based activity: mTOR kinases (mTOR kinases): down

N=C(N)NCCC[C@H](N)C(=O)O [L-Arginine]
activators of mTOR or inhibitors of autophagy, compared with other amino acids (mTOR kinases): more potent
Literature-based activity: mTOR kinases (mTOR kinases): activate
Literature-based activity: autophagy (autophagy): DOWN

N[C@@H](Cc1ccccc1)C(=O)O [phenylalanine, L-Phenylalanine]
activators of mTOR or inhibitors of autophagy, compared with other amino acids (mTOR kinases): no or opposite effects

RSVM (CXCR4 partial agonist) [peptide agonist of CXCR4]
agonist behaviour in chemotaxis (CXCR4): partial agonist
sensitivity to the CXCR4 antagonist AMD3100 (CXCR4): insensitive

NCCCC[C@H](N)C(=O)O [L-Lysine]
activators of mTOR or inhibitors of autophagy, compared with other amino acids (mTOR kinases): no or opposite effects
Literature-based activity: mTOR kinases (mTOR kinases): down

NC(=O)CC[C@H](N)C(=O)O [L-Glutamine]
activators of mTOR or inhibitors of autophagy, compared with other amino acids (mTOR kinases): more potent
Literature-based activity: mTOR kinases (mTOR kinases): activate
Literature-based activity: autophagy (autophagy): DOWN
inhibitory effects on autophagy (autophagy): most prominent

CSCC[C@H](NC=O)C(=O)N[C@@H](CC(C)C)C(=O)N[C@@H](Cc1ccccc1)C(=O)O [fMLP, N-Formyl-L-methionyl-L-leucyl-L-phenylalanine, reference compound]
changes in phosphorylation status of PKB (AKT) on FPR-activation (PKB (also known as AKT); FPR-expressing cells, p<0.05 at 600 seconds): significant
changes in phosphorylation status of p38 MAPK on FPR-activation (p38 MAPK; FPR-expressing cells, p<0.05 from 60 to 600 seconds): significant
changes in phosphorylation status of STAT3, JNK and P42/p44MAPK/ERK1,2 on FPR-activation ([6]; FPR-expressing cells): not (or not detectable)

CC(C)[C@H](N)C(=O)O [L-Valine]
activators of mTOR or inhibitors of autophagy, compared with other amino acids (mTOR kinases): more potent
Literature-based activity: mTOR kinases (mTOR kinases): activate

NCC(=O)O [L-Glycine]
activators of mTOR or inhibitors of autophagy, compared with other amino acids (mTOR kinases): more potent
Literature-based activity: autophagy (autophagy): DOWN

Pro-Gly-Pro [PGP]
potency in evoking neutrophil chemotaxis, less than AcPGP (neutrophil; unacetylated versus acetylated peptide): 4-7 fold
